Measured values published in ChEMBL document CHEMBL1201862, “PubChem BioAssay data set” (2004).
Active and inactive are the calls of the source.

Assays:
Leucine aminopeptidase = target: T1, Leucine aminopeptidase (Plasmodium falciparum 3D7, UniProt Q8IL11); assay: P. falciparum M17LAP inhibitors, primary screen, biochemical, fluorogenic H-Leu-NHMec substrate, 1536-well (AID 1619); format: functional
T1 sequence (Q8IL11 whole entry): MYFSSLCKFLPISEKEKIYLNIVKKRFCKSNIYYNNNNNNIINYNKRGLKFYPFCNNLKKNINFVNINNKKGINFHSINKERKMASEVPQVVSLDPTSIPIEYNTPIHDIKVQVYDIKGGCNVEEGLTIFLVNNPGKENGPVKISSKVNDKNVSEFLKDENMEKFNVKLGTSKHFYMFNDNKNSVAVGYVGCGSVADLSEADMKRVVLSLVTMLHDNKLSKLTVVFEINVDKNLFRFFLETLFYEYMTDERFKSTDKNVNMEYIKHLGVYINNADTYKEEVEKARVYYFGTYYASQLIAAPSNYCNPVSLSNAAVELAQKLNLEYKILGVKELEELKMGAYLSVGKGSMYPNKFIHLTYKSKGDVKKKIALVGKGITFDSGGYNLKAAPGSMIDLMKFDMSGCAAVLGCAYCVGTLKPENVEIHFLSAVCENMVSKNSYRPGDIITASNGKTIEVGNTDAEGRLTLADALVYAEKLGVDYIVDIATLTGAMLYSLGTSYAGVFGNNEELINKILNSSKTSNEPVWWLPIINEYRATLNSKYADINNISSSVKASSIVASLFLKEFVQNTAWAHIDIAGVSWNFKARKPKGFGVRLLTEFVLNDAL

Paired box protein Pax-8 = Paired box protein Pax-8 (Homo sapiens, UniProt Q06710); assay: inhibitors of PAX8-driven TPO luciferase reporter, dose response, RMG-I cells, cherry-pick (AID 687027); format: functional, cell-based;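 note: luciferase reporter driven by Pax8 target thyroperoxidase promoter measured by SteadyGlo luminescence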
Chain of Paired box protein Pax-8 (Q06710 whole entry): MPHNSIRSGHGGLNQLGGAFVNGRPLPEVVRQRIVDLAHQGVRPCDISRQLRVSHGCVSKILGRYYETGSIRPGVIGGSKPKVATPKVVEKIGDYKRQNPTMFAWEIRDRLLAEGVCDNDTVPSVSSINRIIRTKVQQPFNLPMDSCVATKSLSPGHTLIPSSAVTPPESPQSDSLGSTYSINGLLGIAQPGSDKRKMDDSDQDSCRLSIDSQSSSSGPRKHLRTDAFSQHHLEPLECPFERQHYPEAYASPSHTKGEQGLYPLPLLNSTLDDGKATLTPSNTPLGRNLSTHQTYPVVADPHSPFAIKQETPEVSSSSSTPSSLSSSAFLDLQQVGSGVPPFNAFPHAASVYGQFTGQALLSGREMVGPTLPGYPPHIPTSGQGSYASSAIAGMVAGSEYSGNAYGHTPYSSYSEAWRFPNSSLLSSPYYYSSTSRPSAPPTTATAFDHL

[1] = target: T2, Polyadenylate-binding protein 1 (Homo sapiens, UniProt P11940); assay: PABP1 MLLE–PAM2 interaction inhibitors, dose response, miRNA deadenylation inhibitor project, biochemical, fluorescence polarization, Cy5-PAM2 peptide, secondary (AID 602260); format: functional; conditions: read-out: IC50_Mean
T2 sequence (P11940 whole entry): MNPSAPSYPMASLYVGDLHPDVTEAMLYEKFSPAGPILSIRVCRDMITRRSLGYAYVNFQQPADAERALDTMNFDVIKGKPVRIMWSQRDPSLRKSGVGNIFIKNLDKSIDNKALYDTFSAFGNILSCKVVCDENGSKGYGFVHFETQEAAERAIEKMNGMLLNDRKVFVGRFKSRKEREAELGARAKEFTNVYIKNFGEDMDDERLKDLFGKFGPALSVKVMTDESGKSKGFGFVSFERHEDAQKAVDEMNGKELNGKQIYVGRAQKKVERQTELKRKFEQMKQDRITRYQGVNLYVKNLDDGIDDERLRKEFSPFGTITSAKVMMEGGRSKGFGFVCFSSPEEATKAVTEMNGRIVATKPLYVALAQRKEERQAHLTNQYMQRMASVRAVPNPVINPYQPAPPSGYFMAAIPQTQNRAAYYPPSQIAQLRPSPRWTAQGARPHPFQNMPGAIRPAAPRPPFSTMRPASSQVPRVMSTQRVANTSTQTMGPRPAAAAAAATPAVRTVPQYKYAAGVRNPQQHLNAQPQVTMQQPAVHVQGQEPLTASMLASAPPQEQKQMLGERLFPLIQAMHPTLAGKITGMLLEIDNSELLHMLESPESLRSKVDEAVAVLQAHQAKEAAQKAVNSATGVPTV

[2] = target: T2, Polyadenylate-binding protein 1; assay: PABP1 MLLE–PAM2 binding inhibitor potency, dose response, biochemical, fluorescence polarization, FITC-PAM2 peptide (AID 602259); format: functional; conditions: read-out: IC50_Mean
Cytochrome P450 2C9 = Cytochrome P450 2C9 (Homo sapiens, UniProt P11712)
Chain of Cytochrome P450 2C9 (P11712 whole entry): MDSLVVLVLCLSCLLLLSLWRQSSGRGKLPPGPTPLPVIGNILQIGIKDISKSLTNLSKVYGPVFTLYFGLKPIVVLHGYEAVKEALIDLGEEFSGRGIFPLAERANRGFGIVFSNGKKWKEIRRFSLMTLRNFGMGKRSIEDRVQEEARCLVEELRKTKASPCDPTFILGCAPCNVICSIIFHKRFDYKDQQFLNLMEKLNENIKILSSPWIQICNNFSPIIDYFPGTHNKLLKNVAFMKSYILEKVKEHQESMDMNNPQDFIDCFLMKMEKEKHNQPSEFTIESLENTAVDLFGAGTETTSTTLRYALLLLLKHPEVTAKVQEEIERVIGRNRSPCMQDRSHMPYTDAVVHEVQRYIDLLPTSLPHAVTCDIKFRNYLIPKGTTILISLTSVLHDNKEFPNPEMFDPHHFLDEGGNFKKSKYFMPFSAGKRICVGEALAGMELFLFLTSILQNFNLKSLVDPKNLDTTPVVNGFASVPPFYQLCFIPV

Cytochrome P450 2D6 = Cytochrome P450 2D6 (Homo sapiens, UniProt P10635);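 note: CYP2D6 member of a cytochrome P450 panel assay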
Chain of Cytochrome P450 2D6 (P10635 whole entry): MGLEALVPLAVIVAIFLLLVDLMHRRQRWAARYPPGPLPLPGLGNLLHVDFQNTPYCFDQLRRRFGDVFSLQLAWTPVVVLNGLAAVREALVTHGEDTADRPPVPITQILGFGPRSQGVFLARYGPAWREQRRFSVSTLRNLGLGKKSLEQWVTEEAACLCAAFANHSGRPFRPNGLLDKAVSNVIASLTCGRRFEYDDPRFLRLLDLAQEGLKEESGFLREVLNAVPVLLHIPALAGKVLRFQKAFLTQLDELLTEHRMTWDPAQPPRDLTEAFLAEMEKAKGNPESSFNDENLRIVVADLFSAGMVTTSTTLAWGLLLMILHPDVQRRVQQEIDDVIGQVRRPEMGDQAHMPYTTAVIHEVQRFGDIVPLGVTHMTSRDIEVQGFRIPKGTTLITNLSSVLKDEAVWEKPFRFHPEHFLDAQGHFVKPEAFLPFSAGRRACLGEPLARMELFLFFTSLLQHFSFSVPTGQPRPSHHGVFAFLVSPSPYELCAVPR

Cytochrome P450 2C19 = Cytochrome P450 2C19 (Homo sapiens, UniProt P33261); assay: Cytochrome panel assay with activity outcomes. Panel member name: p450-cyp2c19 Compounds with AC50 equal or less than 10 uM are considered active; format: functional
Chain of Cytochrome P450 2C19 (P33261 whole entry): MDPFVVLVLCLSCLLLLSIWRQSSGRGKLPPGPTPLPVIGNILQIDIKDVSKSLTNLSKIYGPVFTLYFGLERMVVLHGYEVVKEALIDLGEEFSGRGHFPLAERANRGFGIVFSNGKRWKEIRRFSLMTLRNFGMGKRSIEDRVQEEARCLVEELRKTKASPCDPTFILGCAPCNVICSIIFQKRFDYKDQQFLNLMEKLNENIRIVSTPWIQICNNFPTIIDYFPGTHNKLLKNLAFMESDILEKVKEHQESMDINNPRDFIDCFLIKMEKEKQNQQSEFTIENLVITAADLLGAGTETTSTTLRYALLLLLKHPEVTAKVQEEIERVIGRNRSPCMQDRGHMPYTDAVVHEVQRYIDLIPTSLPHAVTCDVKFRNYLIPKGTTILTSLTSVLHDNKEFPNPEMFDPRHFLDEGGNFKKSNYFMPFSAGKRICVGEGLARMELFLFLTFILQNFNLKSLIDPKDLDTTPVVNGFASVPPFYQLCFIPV

Cytochrome P450 1A2 = target: T3, Cytochrome P450 1A2 (Homo sapiens, UniProt P05177);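 note: PubChem cytochrome P450 panel assay, CYP1A2 panel member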
T3 sequence (P05177 whole entry): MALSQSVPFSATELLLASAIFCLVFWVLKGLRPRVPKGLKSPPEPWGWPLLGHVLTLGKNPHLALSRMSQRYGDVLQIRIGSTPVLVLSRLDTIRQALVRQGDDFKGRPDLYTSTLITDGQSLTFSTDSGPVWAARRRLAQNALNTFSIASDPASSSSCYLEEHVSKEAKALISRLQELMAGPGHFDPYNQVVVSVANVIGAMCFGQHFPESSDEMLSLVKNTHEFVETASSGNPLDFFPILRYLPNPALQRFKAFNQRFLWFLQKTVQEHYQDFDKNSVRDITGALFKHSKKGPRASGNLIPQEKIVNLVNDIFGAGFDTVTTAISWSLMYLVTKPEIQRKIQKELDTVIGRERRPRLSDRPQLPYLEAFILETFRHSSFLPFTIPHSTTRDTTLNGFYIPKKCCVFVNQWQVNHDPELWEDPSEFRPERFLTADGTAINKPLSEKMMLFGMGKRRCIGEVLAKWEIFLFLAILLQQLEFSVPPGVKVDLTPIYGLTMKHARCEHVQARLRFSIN

| IC50 [1] | IC50 [2] | AC50 (Cytochrome P450 2D6) | Compound | further results |
| --- | --- | --- | --- | --- |
| > 66 µM (inactive) | > 66 µM (inactive) | – | O=C(CN1C(=O)S/C(=C\c2ccccc2)C1=O)NCCCn1ccnc1 | – |
| > 66 µM (inactive) | > 66 µM (inactive) | – | O=C(NC(=S)Nc1ccc2oc(=O)ccc2c1)c1ccco1 | – |
| – | – | 39.8 µM (inconclusive) | CN(C)c1ncc2nc(-c3cccc(C#N)c3)c(=O)n(CCC#N)c2n1 | AC50 (Cytochrome P450 2C9): inconclusive |
| – | – | 1.26 µM (inconclusive) | CCc1ccc(OCCCC(=O)Nc2ccc(N3CCCCC3)cc2)cc1 | AC50 (Cytochrome P450 2C19; read-out: AC50): 10 µM (inconclusive) |
| – | – | 39.8 µM (inconclusive) | Fc1ccc(Nc2ncncc2-c2ccccc2C(F)(F)F)cc1 | AC50 (Cytochrome P450 1A2): 20 µM (inconclusive) |

Further lines, the compound ahead of its results:

| Compound | IC50 [1] | IC50 [2] | AC50 (Cytochrome P450 2D6) | further results |
| --- | --- | --- | --- | --- |
| CC(=O)Nc1c(O)nc(SCC(=O)Nc2cccc(C)c2)[nH]c1=O | – | – | – | IC50 (Leucine aminopeptidase): 9.85 µM (active) |
| C[C@@H]1CN([C@@H](C)CO)S(=O)(=O)c2ccc(C#Cc3ccc(F)cc3)cc2O[C@H]1CN(C)C(=O)NC1CCCCC1 | – | – | – | AC50 (Paired box protein Pax-8): 7.93 µM (active) |
| CCCOc1ccc(NC(=O)C2CC(=O)N(C(C)C)C2)cc1 (configuration not stated) | – | – | – | IC50 (Leucine aminopeptidase): 99.7 µM (active) |
| O=C1c2ccccc2-c2cc3ccccc3cc21 | > 66 µM (inactive) | > 66 µM (inactive) | – | – |
| O=C(NC(=S)Nc1ccccc1)c1cncc(C#Cc2ccccc2)c1 | > 66 µM (inactive) | > 66 µM (inactive) | – | – |
| Cn1c(CCN2CCN(c3ccccn3)CC2)nc2cc(NS(=O)(=O)c3ccc(Cl)cc3)ccc21 | – | – | – | AC50 (Paired box protein Pax-8): 8.15 µM (active) |
| N=C(N)Nc1ccc(Cl)cc1 | – | – | 31.6 µM (inconclusive) | AC50 (Cytochrome P450 2C19): inconclusive |
| COCCCN=C(S)N(CCO)Cc1cc2cc3c(cc2nc1O)OCCO3 | > 66 µM (inactive) | > 66 µM (inactive) | – | – |
